In ChEMBL document CHEMBL2086317, “Synthesis and Agonistic Activity at the GPR35 of 5,6-Dihydroxyindole-2-carboxylic Acid Analogues” (ACS Med Chem Lett, 2012):
Calls of active or inactive are those of the source. The calls are words filed in the database; no cut-off is given here.

Key:
Type in all cases: functional, cell-based
[1] = target: T1, G-protein coupled receptor 35 (Homo sapiens, UniProt Q9HC97); assay: Agonist activity at human GPR35 expressed in U2OS cells coexpressing Gal4-VP16/beta-arrestin fusion protein after 5 hrs by tango beta-arrestin translocation reporter gene assay
T1 sequence (Q9HC97 whole entry, the tested form may be a part): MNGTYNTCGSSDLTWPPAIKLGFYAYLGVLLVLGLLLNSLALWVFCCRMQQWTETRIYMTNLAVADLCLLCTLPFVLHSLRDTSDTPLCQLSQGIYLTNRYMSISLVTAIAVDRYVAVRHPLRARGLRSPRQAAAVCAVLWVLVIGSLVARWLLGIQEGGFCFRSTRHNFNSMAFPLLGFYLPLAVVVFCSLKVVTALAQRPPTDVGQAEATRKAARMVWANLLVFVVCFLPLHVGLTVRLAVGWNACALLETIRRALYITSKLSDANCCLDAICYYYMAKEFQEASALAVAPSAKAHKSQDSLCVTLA

[2] = target: T1, G-protein coupled receptor 35; assay: Agonist activity at GPR35 in human HT-29 cells measured after 10 mins by dynamic mass redistribution assay
[3] = target: T1, G-protein coupled receptor 35; assay: Agonist activity at human GPR35 expressed in U2OS cells coexpressing Gal4-VP16/beta-arrestin fusion protein after 5 hrs by tango beta-arrestin translocation reporter gene assay relative to zaprinast
[4] = target: T1, G-protein coupled receptor 35; assay: Agonist activity at GPR35 in human HT-29 cells at 64 uM measured after 10 mins by dynamic mass redistribution assay in presence of SPB05142
[5] = target: T1, G-protein coupled receptor 35; assay: Agonist activity at GPR35 in human HT-29 cells at 32 uM measured after 10 mins by dynamic mass redistribution assay in presence of SPB05142
[6] = target: T1, G-protein coupled receptor 35; assay: Agonist activity at GPR35 in human HT-29 cells at 1 uM measured after 10 mins by dynamic mass redistribution assay in presence of SPB05142
[7] = target: T1, G-protein coupled receptor 35; assay: Agonist activity at human GPR35 expressed in U2OS cells coexpressing Gal4-VP16/beta-arrestin fusion protein at 100 uM after 5 hrs by tango beta-arrestin translocation reporter gene assay in presence of ML145

| EC50 ([1]; read-out: EC50) | EC50 ([2]; read-out: EC50) | Efficacy [3] | EC50 ([1]; u2os) | Compound | further results |
| --- | --- | --- | --- | --- | --- |
| 61.2 µM | 10.3 µM | 18% |  | O=C(O)c1[nH]c2cc(O)c(O)cc2c1-c1ccsc1 |  |
| 45.7 µM | 77.1 µM | 52% |  | CCn1c(C(=O)O)cc2cc(O)c(O)cc21 |  |
|  |  |  | Not Active | O=C(O)Cn1c(C(=O)O)cc2cc(O)c(O)cc21 | EC50 ([2]; ht-29): Not Active |
| 23.2 µM | 23.6 µM | 75% |  | O=C(O)c1cc2cc(O)c(O)cc2[nH]1 |  |
| 34.4 µM | 2.48 µM | 19% |  | O=C(O)c1[nH]c2cc(O)c(O)cc2c1-c1cccc(Cl)c1 |  |
| 387 µM | 2.54 µM | 89% |  | O=C(O)c1[nH]c2cc(O)c(O)cc2c1-c1ccc(Cl)cc1 |  |
| 75.7 µM | 24.9 µM | 17% |  | O=C(O)c1cccc(-c2c(C(=O)O)[nH]c3cc(O)c(O)cc23)c1 |  |
| 166 µM | 4.1 µM | 48% |  | O=C(O)c1[nH]c2cc(O)c(O)cc2c1Br |  |
|  | 84 µM |  | Not Active | O=C(O)c1[nH]c2cc(O)c(O)cc2c1-c1cccnc1 |  |
|  | 12.9 µM |  | Not Active | O=C(O)c1[nH]c2cc(O)c(O)cc2c1-c1ccc(C(F)(F)F)cc1 |  |
| 24.2 µM | 1.06 µM | 25% |  | O=C(O)c1[nH]c2cc(O)c(O)cc2c1-c1cc(Cl)cc(Cl)c1 |  |
| 45.4 µM | 64.2 µM | 85% |  | Cn1c(C(=O)O)cc2cc(O)c(O)cc21 |  |
| > 500 µM | 17.3 µM | > 25% |  | Cc1ccc(Cn2c(C(=O)O)cc3cc(O)c(O)cc32)cc1 |  |
|  | 20.2 µM |  | Not Active | O=C(O)c1[nH]c2cc(O)c(O)cc2c1-c1ccccc1 |  |
| 133 µM | 16.2 µM | 27% |  | Cc1c(C(=O)O)oc2cc(O)c(O)cc12 | Activity [4]: inactive |
|  | 43.7 µM |  | Not Active | O=C(Cn1c(C(=O)O)cc2cc(O)c(O)cc21)c1ccccc1 |  |
| 10.8 µM | 22.6 µM | 40% |  | O=C(O)c1ccc(-c2c(C(=O)O)[nH]c3cc(O)c(O)cc23)cc1 |  |
| 90.6 µM | 6.17 µM | 109% |  | Cc1c(C(=O)O)sc2cc(O)c(O)cc12 | Activity [5]: inactive |
|  | 39.7 µM |  | Not Active | Cc1ccc(C(=O)Cn2c(C(=O)O)cc3cc(O)c(O)cc32)cc1 |  |
|  | 43.5 µM |  | Not Active | O=C(O)c1cc2cc(O)c(O)cc2n1Cc1ccccc1 |  |
| 520 µM | 7.35 µM | 86% |  | O=C(O)c1cc2cc(O)c(O)cc2s1 | Activity [5]: inactive |
| 109 µM | 4.36 µM | 48% |  | O=C(O)c1[nH]c2cc(O)c(O)cc2c1-c1cc(F)cc(F)c1 |  |
| 46.5 µM | 0.16 µM | 94% |  | Cc1c(C(=O)O)sc2cc(Br)c(O)c(Br)c12 | Activity [6]: inactive; Activity [7]: inactive |
